Molecules are shown by their SMILES.

Consider three compounds from patent US20090053294A1, “Anti Mineralocorticoid Therapy of Infection” (priority 2005, published 2009).

The conditions of series [1]: in vivo; cited from earlier work.
The next series deals with HIV-1. The note with it: PBL, MOI 0.2, day 7, RT activity in supernatant.
Series [2] relates to fresh human peripheral blood lymphocytes (PBL). In kind it is cell-based.
The subject of series [3] is monocytotropic HIV-1 isolates. In words: Anti-HIV activity in fresh human monocyte-macrophages (p24 ELISA). The note with it: MOI 0.1, p24 ELISA day 7 post-infection. In kind it is cell-based. The procedure:
(§1) For isolation of adherent cells, 3×10^6 non-PHA stimulated peripheral blood cells are resuspended in Hanks buffered saline (with calcium and magnesium) supplemented with 10% human AB serum. The cells are placed in a 96-well microtiter plate at 37° C. for 2 hours. Non-adherent cells are removed by vigorously washing six times. The adherent cells are cultured for 7 days in RPMI 1640 tissue culture medium with 15% fetal bovine serum. The cultures are carefully monitored for confluency during this incubation period. Infection of the cells is performed with monocytotropic HIV-1 isolates. High titer pools of each of these viruses are harvested from Infected cultures of peripheral blood adherent cells and frozen in 1.0 ml aliquots at […]. […] Compounds to be evaluated in the monocyte-macrophage assay are added to the monolayers shortly before infection in order to maximize the potential for identifying active compounds.
(§2) At 2 days post-infection, the medium is decanted and the cultures washed twice with complete medium in order to remove excess virus. […] Control curves are generated in each assay to accurately quantitate the amount of capsid protein in each sample. Data is obtained by spectrophotometric analysis at 450 nm using a Molecular Devices Vmax plate reader. P24 concentrations are calculated from the optical density values by use of the Molecular Device software package Soft Max.

In series [4] the test system is fresh human monocyte-macrophages. The experiment in a line: Cytotoxicity in monocyte-macrophages (XTT staining). The format is cell-based. The note with it: XTT staining day 7 post-infection. Here is the method: as §1, §2
The next series has as its target T1, progesterone receptors (Homo sapiens, UniProt P06401).
T1 sequence (P06401 1-933): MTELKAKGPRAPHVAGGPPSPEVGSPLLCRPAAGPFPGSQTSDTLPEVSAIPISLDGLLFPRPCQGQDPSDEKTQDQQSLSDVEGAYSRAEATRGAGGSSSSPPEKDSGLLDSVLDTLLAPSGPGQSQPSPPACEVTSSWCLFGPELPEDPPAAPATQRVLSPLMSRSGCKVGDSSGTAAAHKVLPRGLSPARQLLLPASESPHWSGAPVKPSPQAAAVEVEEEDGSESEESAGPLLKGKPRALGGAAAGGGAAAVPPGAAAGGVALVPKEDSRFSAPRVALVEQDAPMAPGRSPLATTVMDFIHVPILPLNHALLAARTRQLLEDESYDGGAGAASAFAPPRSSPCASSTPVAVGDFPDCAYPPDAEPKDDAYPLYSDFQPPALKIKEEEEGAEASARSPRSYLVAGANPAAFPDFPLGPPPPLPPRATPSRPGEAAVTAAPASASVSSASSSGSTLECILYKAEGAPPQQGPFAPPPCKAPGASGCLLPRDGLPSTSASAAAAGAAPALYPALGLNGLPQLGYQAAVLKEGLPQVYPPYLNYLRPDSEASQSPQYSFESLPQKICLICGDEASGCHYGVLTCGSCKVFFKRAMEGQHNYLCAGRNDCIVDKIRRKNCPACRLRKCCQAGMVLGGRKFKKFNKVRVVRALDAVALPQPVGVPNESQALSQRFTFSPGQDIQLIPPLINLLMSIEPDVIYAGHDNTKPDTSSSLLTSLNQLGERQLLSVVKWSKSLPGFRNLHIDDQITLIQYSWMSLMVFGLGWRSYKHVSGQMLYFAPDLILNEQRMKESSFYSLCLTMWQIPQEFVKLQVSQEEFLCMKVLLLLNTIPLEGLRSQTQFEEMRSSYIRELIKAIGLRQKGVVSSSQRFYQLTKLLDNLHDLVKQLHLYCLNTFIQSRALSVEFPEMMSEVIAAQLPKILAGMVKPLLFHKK
The note with it: cited from earlier work.

For series [5] the following is noted: 50 mg dose; cited from earlier work.

As to `CC(=O)S[C@@H]1CC2=CC(=O)CC[C@]2(C)[C@H]2CC[C@@]3(C)[C@@H](CC[C@@]34CCC(=O)O4)[C@H]12` [spironolactone, 17-hydroxy-7-alpha-mercapto-3oxo-17-alpha-pregn-4ene-21-carboxylic acid gamma-lactone acetate], the extent of metabolism result in series [1] is recorded as “extensively metabolised”. The “% HIV-1 levels / viral replication in T-lymphocyte cultures” value in the series with HIV-1 is given as “decreased in a dose dependent manner”. In series [2], the “health / cell growth of T-lymphocyte cultures” value is on record as “remain healthy at all concentrations”.
As for `C[C@]12CCC(=O)C=C1C=C[C@@H]1[C@@H]2CC[C@@]2(C)[C@H]1CC[C@@]2(O)CCC(=O)O` [potassium canrenoate], in series [3], the “HIV-1 levels in macrophages” value is on record as “decreased in a dose dependent fashion”. The “cell viability in macrophages” value in series [4] is reported as “little effect on cell viability”. Also, the “% HIV-1 levels / viral replication in T-lymphocyte cultures” value in the series on HIV-1 is reported as “decreased in a dose dependent manner”. For the same compound, the “health / cell growth of T-lymphocyte cultures” value in series [2] is reported as “remain healthy at all concentrations”.
Regarding `COC(=O)[C@@H]1CC2=CC(=O)CC[C@]2(C)[C@@]23O[C@@H]2C[C@@]2(C)[C@@H](CC[C@@]24CCC(=O)O4)[C@H]13` [Epoxymexrenone, epoxymexrenone], the “binding affinity for progesterone receptors” value at progesterone receptors was “reduced”. In addition, the “Na+/K+ effect” value in series [5] is “equipotent with spironolactone”.
